According to patent US4908351A, “Antibiotic a 42867 derivative” (Merrell Dow Pharmaceuticals Inc., priority 1988, dated 1990):

Experiments:
Test in all cases: MIC, broth dilution test
Format in all cases: cell-based
[1] = system: Strep. pyogenes L 49 C 203; details: Todd-Hewitt broth, 24 h, 37° C.
Procedure: (§1) Culture media and growth conditions for MIC (minimal inhibitory concentration) determinations were as follows: Isosensitest broth (Oxoid), 24 h, for staphylococci, Strep. faecalis and Gram-negative bacteria (Escherichia coli); Todd-Hewitt broth (Difco), 24 h for other streptococcal species; GC base broth (Difco) +1% Isovitalex (BBL), 48 h, CO2 -enriched atmosphere for Neisseria gonorrhoeae; Brain Heart broth (Difco) +1% Supplement C (Difco), 48 h for Haemophilus influenzae. PPLO broth with supplements as in R. T. Evans and D. Taylor-Robinson (J. Antimicrob. Chemother. 4, 57), 24 h for U. urealyticum. Incubation was at 37° C. Inocula were as follows: about 10^4 color-changing units/ml for U. urealyticum; about 10^4 -10^5 colony-forming units/ml for other broth dilution MICs. The minimal inhibitory concentrations (MIC, microgram/ml) for some microorganisms are reported below in Table I.

[2] = system: Escherichia coli L 47 SKF 12140; details: Isosensitest broth, 24 h, 37° C.
Procedure: as §1

[3] = system: Strep. faecalis L 149 ATCC 7080; details: Isosensitest broth, 24 h, 37° C.
Procedure: as §1

[4] = system: Staph. epidermidis L 147 ATCC 12228 (coagulase negative); details: Isosensitest broth, 24 h, 37° C.
Procedure: as §1

[5] = system: Staph. haemolyticus clin isolate; details: Isosensitest broth, 24 h, 37° C.
Procedure: as §1

[6] = system: Strep. pneumoniae L 44 UC 41; details: Todd-Hewitt broth, 24 h, 37° C.
Procedure: as §1

[7] = system: Ureaplasma urealyticum 1479 clin. isolate; details: PPLO broth with supplements, 24 h, about 10^4 color-changing units/ml, 37° C.
Procedure: as §1

[8] = system: Neisseria gonorrhoeae L 997 ISM 68/126; details: GC base broth +1% Isovitalex, 48 h, CO2-enriched atmosphere, 37° C.
Procedure: as §1

[9] = system: Strep. mitis L 796 (clinical isolate); details: Todd-Hewitt broth, 24 h, 37° C.
Procedure: as §1

[10] = system: Haemophilus influenzae type b L 970 ATCC 19418; details: Brain Heart broth +1% Supplement C, 48 h, 37° C.
Procedure: as §1

Staph. aureus L 165 = details: Isosensitest broth, 24 h, 37° C.
Procedure: as §1, with “Inocula were as follows: about 10^4 color-changing units/ml for U. urealyticum; about 10^4 -10^5 colony-forming units/ml for other broth dilution MICs.” left out

antibiotic A 42867 pseudoaglycon was tested, and the M.I.C. [1] was 0.5 microgram/ml, the M.I.C. [2] was > 128 microgram/ml and the M.I.C. [3] was 2 microgram/ml. It also gave a M.I.C. [4] of 2 microgram/ml, a M.I.C. [5] of 2 microgram/ml and a M.I.C. [6] of 1 microgram/ml. The M.I.C. [7] was > 128 microgram/ml, the M.I.C. [8] was 64 microgram/ml and the M.I.C. [9] was 0.5 microgram/ml. For the same substance, the M.I.C. [10] was > 128 microgram/ml, the M.I.C. (Staph. aureus L 165; Staph. aureus 10^6 cfu/ml) was 1 microgram/ml and the M.I.C. (Staph. aureus L 165; Staph. aureus 30% bovine serum) was 2 microgram/ml. For the same substance, the M.I.C. (Staph. aureus L 165; Staph. aureus L 165, 10^4 cfu/ml) was 1 microgram/ml.
